Results published in patent publication US4806532A, “Inhibition of epithelial phosphate transport” (Mayo Foundation for Medical Education and Research, priority 1985, dated 1989).
Counter-ions that a name gives are not always drawn. Like-named read-outs stand apart in the source and are kept apart here.

What was measured:
[1] = tested on: L-[^3 H]--proline uptake by BBMV from rat small intestine; assay: L-[3H]-proline uptake by intestinal BBMV; assay type: biochemical; conditions: 1 mM; for L-[3H]-proline uptake 15 sec: control 27 ± 0.2; for L-[3H]-proline uptake 120 min: control 53 ± 2
Na-Pi cotransporter [2] = assay: Na+-gradient-dependent 32Pi uptake by intestinal BBMV; assay type: biochemical, rat; conditions: 1 mM; equilibrium; rat small intestine BBMV; control 151 ± 4
Description: The intestinal BBMV fractions were prepared from mucosa of rat small intestine of rats using the modified magnesium- precipitation method as described by B. Steiger and H. Murer [Eur. J. Biochem., 135, 95 (1983)]. This intestinal BBMV fraction is analogous to the BBMV fraction isolated from kidney. The uptake of ^32 Pi in the presence of Na^+ -gradient [Nao^+ >Nai^+ ] was determined by a rapid filtration technique similar to that employed in the transport measurements on renal BBMV. The Na^+ -gradient [Nao^+ >Nai^+ ]-dependent Pi uptake in the initial phase was measured after 30 sec. The ^32 Pi uptake at equilibrium was measured at 180 min.

Na-Pi cotransporter [3] = biological target: T1, Na-Pi cotransporter (Rattus norvegicus, UniProt Q06496); assay: Na+-gradient-dependent 32Pi uptake by renal cortical BBMV (rapid filtration); assay type: biochemical; conditions: for 32Pi Uptake 120 min / 32Pi Uptake 20 sec: 5 min preincubation; for 32Pi Uptake 120 min: equilibrium; for 32Pi Uptake 20 sec: mean ± SE of 3-5 experiments
T1 construct: from tissue; host or cells: rat renal cortex, brush border membrane vesicles
T1 sequence (Q06496 1-637): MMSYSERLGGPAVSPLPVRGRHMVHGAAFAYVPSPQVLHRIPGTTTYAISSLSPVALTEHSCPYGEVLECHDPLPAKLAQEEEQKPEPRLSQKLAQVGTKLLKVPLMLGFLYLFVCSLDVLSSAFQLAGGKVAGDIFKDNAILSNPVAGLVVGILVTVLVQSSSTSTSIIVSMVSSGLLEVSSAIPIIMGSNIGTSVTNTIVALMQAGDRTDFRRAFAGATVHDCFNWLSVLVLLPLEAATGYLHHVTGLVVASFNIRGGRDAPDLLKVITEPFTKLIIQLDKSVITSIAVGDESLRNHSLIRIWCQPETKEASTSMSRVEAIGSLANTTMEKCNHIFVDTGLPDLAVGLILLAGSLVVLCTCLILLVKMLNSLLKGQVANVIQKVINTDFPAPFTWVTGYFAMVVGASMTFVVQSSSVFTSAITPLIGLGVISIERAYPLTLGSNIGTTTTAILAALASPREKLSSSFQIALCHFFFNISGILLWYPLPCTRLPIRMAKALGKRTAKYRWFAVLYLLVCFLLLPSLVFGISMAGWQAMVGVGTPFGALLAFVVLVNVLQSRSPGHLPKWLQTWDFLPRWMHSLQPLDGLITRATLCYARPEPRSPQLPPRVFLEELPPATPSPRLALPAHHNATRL
Description: The brush border membrane vesicles (BBMV) were prepared from renal cortical tissue of adult male Sprague-Dawley rats of an average body weight of about 220 grams. Rats were fed ad libitum standard rat chow containing 0.7% Pi and had free access to distilled water. Rats were sacrificed under anesthesia and dissected renal cortical tissue was used for preparation of BBMV fraction by the divalent cation-precipitation procedure, employed and described in detail in J. Clin. Invest., 67, 1347 (1981) and J. Biol. Chem., 258, 5695 (1983), with the following modifications: (a) MgCl2 instead of CaCl2 was added to crude homogenate (final concentration 10 mM MgCl2) to precipitate membranes other than BBMV; (b) in the final step, BBMV were washed and equilibrated in a medium of pH=7.5, instead of pH=8.5. The enrichment and specific activities of typical BBM enzymes alkaline phosphatase (APases), γ-glutyamyl transferase (γ-GTT), leucineaminopeptidase (LAP) and maltase with use of these modifications were similar as in BBMV fractions prepared in our previous studies. As a final step in the preparative procedure, the BBMV fraction was washed and resuspended in a medium containing 300 mM mannitol and 5 mM Tris-HEPES adjusted to pH=t.5, referred to as "MTH-medium," unless specified otherwise. The analogous BBMV fractions, using the same procedure, were prepared from renal cortices of mongrel dogs, albino mice and New Zealand albino rabbits.
The BBMV uptake of ^32 Pi, D-[^3 H]-glucose, L-[^3 H]-proline and ^22 Na^+ was measured by means of a rapid filtration technique, as described in J. Clin. Invest., 67, 1347 (1981) and Am. J. Physiol., 246, F133-F139 (1984). Also, unless specified otherwise, the medium for the solute uptake assay consisted of following compounds (in final concentrations): 100 mM mannitol, 100 mM NaCl (or 100 mM KC1) and 5 mM Tris-HEPES (pH=7.5) and eitehr 0.1 mM K2 H^32 PO4, or 0.05 mM D-[^3 H]-glucose, or 0.025 mM L-[^3 H]-proline. IN the ^22 Na^+ uptake studies, the assay medium contained 100 mM ^22 NaCl (^22 NaCl about […] per tube), 100 mM mannitol and 5 mM Tris-HEPES (pH 7.5).
In most experiments, the Na^+ -gradient-dependent ^32 Pi uptake in the concentrative "uphill" phase was measured at 20 seconds period. Since Na^+ -independent Pi uptake in this time period was quantitatively minor component (<5%) of the Na^+ -gradient-dependent Pi uptake, it was not routinely subtracted.

[4] = tested on: D-[^3 H]--glucose uptake by BBMV from rat small intestine; assay: D-[3H]-glucose uptake by intestinal BBMV; assay type: biochemical; conditions: 1 mM; for D-[3H]-glucose uptake 120 min: control 57 ± 2; for D-[3H]-glucose uptake 15 sec: control 67 ± 0.5
Description: The intestinal BBMV fractions were prepared from mucosa of rat small intestine of rats using the modified magnesium- precipitation method as described by B. Steiger and H. Murer [Eur. J. Biochem., 135, 95 (1983)]. This intestinal BBMV fraction is analogous to the BBMV fraction isolated from kidney. […]

[5] = Hydrolysis of phosphono-compounds (release of Pi) in the BBMV assay; conditions: 1 mM; hydrolysis to release more than 5% Pi
Description: Compounds studied in the present experiments which inhibited BBM transport of Pi without hydrolysis to release more than 5% Pi are listed in Table 1.

[6] = 1 mM, initial uptake at 20 sec, rat kidney cortex BBMV, read-out: Δ% (inhibition as percent decrease from control) of Na+-gradient-dependent 32Pi uptake

Row | SMILES | L-[3H]-proline uptake 15 sec [1] | L-[3H]-proline uptake 120 min [1] | 32Pi-phosphate uptake 180 min (Na-Pi cotransporter [2]) | Δ% ratio of uptake at uphill phase (20 sec) and equilibrium phase (120 min) (Na-Pi cotransporter [3]; 0.2 mM) | 32Pi Uptake 120 min (Na-Pi cotransporter [3]; 0.2 mM) | 32Pi Uptake 20 sec (Na-Pi cotransporter [3]; 0.2 mM) | Δ% ratio of uptake at uphill phase (20 sec) and equilibrium phase (120 min) (Na-Pi cotransporter [3]; 1.0 mM) | 32Pi Uptake 120 min (Na-Pi cotransporter [3]; 1.0 mM) | 32Pi Uptake 20 sec (Na-Pi cotransporter [3]; 1.0 mM) | inhibition at 1000 µM (Na-Pi cotransporter [3]; [6]) | Δ% ratio of uptake at uphill phase (20 sec) and equilibrium phase (120 min) (Na-Pi cotransporter [3]; 5.0 mM) | 32Pi Uptake 120 min (Na-Pi cotransporter [3]; 5.0 mM) | 32Pi Uptake 20 sec (Na-Pi cotransporter [3]; 5.0 mM) | D-[3H]-glucose uptake 120 min [4] | D-[3H]-glucose uptake 15 sec [4] | Note: hydrolysis [5] | further results
1 | O=C(O)CP(=O)(O)O [PAA, phosphonoacetic acid] | 27 ± 1.0 pmoles/mg protein | 55 ± 1.0 pmoles/mg protein | 163 ± 6 pmoles/mg protein | +305 ± 101% | 320 ± 80 pmoles/mg protein | 1057 ± 89 pmoles/mg protein | +331 ± 86% | 274 ± 51 pmoles/mg protein | 1019 ± 94 pmoles/mg protein | -18% | +261 ± 78% | 269 ± 52 pmoles/mg protein | 876 ± 68 pmoles/mg protein | 61 ± 3 pmoles/mg protein | 68 ± 3 pmoles/mg protein | no | –
2 | O=C(O)P(=O)(O)O [TPFA, Phosphonoformic acid, trisodium salt hexahydrate] | 27 ± 0.4 pmoles/mg protein | 54 ± 0.1 pmoles/mg protein | 146 ± 5 pmoles/mg protein | +262 ± 44% | 264 ± 53 pmoles/mg protein | 869 ± 45 pmoles/mg protein | +137 ± 27% | 248 ± 47 pmoles/mg protein | 541 ± 39 pmoles/mg protein | -53% | < 0.0% | 239 ± 44 pmoles/mg protein | 153 ± 28 pmoles/mg protein | 57 ± 2 pmoles/mg protein | 69 ± 2 pmoles/mg protein | no | effect on intravesicular volume of BBMV (Na-Pi cotransporter [3]): did not alter; nature of the inhibitory effect on Pi uptake (Na-Pi cotransporter [3]): competitive; inhibition at 1000 µM (Na-Pi cotransporter [3]; 20 s, Rat, 1 mM TPFA, read-out: percent decrease of 20 sec 32Pi-uptake relative to control value): 59.1%; inhibition at 5000 µM (Na-Pi cotransporter [3]; 20 s, Rat, 5 mM TPFA, read-out: percent decrease of 20 sec 32Pi-uptake relative to control value): 78%; effect on 32Pi uptake by BBMV in the absence of Na+ (Na-Pi cotransporter [3]; NaCl replaced by KCl, 1 mM TPFA, FIG. 1): had no effect; 32Pi-uptake 120 min (Na-Pi cotransporter [3]; Rat, 1 mM TPFA, control 361 ± 9): 359 ± 8 pmoles Pi/mg protein/time; 32Pi-uptake 20 sec (Na-Pi cotransporter [3]; Rat, 1 mM TPFA, control 1570 ± 31): 783 ± 6 pmoles Pi/mg protein/time; 32Pi-uptake 20 sec (Na-Pi cotransporter [3]; Rat, 5 mM TPFA): 344 ± 7 pmoles Pi/mg protein/time; 32Pi-uptake 120 min (Na-Pi cotransporter [3]; Rat, 5 mM TPFA): 379 ± 34 pmoles Pi/mg protein/time; Ki (Na-Pi cotransporter [3]; competitive inhibition, renal cortical BBMV): 460 µM; effect on 32Pi uptake under Na+ equilibrium conditions [Na+i = Na+o] (Na-Pi cotransporter [3]; initial fast uptake phase (0-60 seconds), data not shown): inhibited
